ChEMBL document CHEMBL5649166, “RIP3 induces apoptosis independent of pronecrotic kinase activity” (Mol Cell, 2014)
Calls of active or inactive are those of the source. No cut-off for these calls is given here.

Tests used:
[1] = molecular target: Serine/threonine-protein kinase ULK2 (Homo sapiens) (UniProt Q8IYT8); assay: Inhibition of human ULK2 using myelin basic protein as substrate at 1 uM in presence of 32P-ATP by Hotspot assay relative to control; values are per cent of control
[2] = molecular target: Serine/threonine-protein kinase ULK1 (Homo sapiens) (UniProt O75385); assay: Inhibition of human ULK1 using myelin basic protein as substrate at 1 uM in presence of 32P-ATP by Hotspot assay relative to control; values are per cent of control
Sequence of Serine/threonine-protein kinase ULK1 (Homo sapiens) (O75385 whole entry): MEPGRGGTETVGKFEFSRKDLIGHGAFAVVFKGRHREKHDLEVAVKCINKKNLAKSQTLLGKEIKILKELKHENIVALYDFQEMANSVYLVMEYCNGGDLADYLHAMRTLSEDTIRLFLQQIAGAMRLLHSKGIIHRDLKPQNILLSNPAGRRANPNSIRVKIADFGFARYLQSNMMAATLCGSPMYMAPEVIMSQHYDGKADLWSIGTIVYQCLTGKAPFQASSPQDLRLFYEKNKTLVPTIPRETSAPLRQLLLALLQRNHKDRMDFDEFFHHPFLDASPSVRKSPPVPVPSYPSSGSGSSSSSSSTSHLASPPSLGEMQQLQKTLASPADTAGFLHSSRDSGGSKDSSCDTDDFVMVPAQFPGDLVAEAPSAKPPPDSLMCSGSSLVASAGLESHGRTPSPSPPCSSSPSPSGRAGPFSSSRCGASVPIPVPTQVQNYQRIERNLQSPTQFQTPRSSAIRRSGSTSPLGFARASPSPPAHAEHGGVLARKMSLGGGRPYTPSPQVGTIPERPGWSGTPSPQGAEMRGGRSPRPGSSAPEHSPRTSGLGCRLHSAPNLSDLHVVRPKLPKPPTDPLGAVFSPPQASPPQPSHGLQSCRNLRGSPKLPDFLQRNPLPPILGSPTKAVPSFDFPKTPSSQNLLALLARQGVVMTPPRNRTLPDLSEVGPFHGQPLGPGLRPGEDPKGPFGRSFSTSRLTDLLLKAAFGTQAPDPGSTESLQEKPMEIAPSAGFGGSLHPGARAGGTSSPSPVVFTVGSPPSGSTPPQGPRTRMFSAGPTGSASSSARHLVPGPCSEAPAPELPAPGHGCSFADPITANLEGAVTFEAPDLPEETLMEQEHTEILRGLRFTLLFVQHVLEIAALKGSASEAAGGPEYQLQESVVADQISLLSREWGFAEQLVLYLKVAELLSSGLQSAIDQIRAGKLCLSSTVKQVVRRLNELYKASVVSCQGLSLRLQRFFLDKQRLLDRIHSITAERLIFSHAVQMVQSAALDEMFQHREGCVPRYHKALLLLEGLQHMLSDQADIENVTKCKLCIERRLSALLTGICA

[3] = molecular target: Serine/threonine-protein kinase ULK3 (Homo sapiens) (UniProt Q6PHR2); assay: Inhibition of human ULK3 using myelin basic protein as substrate at 1 uM in presence of 32P-ATP by Hotspot assay relative to control; values are per cent of control
Sequence of Serine/threonine-protein kinase ULK3 (Homo sapiens) (Q6PHR2 whole entry): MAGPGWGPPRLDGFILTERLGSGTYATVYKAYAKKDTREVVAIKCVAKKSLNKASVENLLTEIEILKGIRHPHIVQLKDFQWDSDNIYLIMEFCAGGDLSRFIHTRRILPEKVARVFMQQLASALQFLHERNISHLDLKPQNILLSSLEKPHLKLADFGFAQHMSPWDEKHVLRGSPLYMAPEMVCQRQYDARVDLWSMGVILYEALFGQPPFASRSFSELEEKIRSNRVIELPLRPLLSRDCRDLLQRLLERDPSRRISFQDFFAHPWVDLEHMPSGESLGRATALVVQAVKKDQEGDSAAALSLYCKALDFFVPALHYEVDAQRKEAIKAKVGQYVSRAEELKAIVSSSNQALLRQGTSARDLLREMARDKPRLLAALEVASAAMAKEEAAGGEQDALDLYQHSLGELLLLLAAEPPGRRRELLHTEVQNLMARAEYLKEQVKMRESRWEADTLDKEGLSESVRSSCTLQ

[4] = molecular target: Myosin-IIIb (Homo sapiens) (UniProt Q8WXR4); assay: Inhibition of human MYO3b using myelin basic protein as substrate at 1 uM in presence of 32P-ATP by Hotspot assay relative to control; values are per cent of control
Sequence of Myosin-IIIb (Homo sapiens) (Q8WXR4 whole entry): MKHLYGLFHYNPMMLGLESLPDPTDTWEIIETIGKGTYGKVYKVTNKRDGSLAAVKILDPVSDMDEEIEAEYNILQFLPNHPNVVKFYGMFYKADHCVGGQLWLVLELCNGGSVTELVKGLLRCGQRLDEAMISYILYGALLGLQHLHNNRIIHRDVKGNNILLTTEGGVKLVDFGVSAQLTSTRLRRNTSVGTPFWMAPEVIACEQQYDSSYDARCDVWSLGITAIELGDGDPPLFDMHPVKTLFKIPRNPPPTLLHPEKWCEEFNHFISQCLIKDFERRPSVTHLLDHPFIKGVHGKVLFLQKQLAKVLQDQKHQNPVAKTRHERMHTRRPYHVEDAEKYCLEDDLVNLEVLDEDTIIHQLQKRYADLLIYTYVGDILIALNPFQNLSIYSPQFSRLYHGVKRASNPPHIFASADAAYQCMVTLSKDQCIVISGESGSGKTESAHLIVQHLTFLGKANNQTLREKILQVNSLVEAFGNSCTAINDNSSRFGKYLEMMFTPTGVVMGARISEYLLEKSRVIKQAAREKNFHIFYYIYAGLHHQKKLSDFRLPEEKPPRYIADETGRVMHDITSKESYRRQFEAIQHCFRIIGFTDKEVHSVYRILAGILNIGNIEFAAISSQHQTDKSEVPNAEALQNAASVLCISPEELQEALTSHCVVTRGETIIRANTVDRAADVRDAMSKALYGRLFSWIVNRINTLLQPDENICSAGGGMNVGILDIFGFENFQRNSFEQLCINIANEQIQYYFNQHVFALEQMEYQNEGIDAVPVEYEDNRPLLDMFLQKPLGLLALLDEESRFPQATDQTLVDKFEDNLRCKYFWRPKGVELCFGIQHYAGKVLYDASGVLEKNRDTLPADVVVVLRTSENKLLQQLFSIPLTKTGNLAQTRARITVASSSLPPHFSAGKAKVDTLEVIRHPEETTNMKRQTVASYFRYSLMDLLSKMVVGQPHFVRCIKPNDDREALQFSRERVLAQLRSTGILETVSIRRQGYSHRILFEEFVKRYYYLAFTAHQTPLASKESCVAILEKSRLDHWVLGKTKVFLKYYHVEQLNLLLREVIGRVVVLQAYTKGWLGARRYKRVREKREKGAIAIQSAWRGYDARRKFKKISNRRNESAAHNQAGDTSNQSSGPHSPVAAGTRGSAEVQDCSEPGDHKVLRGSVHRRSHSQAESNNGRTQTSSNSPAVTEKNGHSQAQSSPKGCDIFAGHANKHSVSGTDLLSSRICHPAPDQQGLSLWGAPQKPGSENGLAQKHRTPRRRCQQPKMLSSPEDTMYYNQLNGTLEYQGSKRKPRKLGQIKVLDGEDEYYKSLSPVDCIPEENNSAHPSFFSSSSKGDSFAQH

3T3SA [5] = assay: Induction of apoptosis in mouse 3T3SA cells assessed as cleaved caspase 8 accumulation incubated for 2.5 hrs by immunoblot analysis; type: toxicity, cell-based
MEF [6] = assay: Induction of apoptosis in cFLIPL-/- MEF cells transfected with cFLIPL expressing retrovirus incubated for 18 hrs by Cell Titer-Glo luminescent cell viability assay; type: toxicity, cell-based; details: mouse
3T3SA [7] = assay: Induction of apoptosis in mouse 3T3SA cells assessed as cell death by measuring percent of PI positive cells incubated for 8 hrs in presence of zVAD by PI staining based flow cytometric analysis (reference value: 11.4%); type: toxicity
3T3SA [8] = assay: Inhibition of TNF-alpha induced necroptosis in mouse 3T3SA cells at 10 uM incubated for 18 hrs in presence of zVAD by SYTOX green uptake assay; type: functional, cell-based
3T3SA [9] = assay: Induction of apoptosis in RIP3shRNA transfected mouse 3T3SA cells co-transfected with shRNA-resistant RIP3 D161N mutant pre-tranfected for 16 hrs followed by compound addition and measured after 18 hrs in presence of zVAD by Cell Titer-Glo luminescent cell viability assay; type: toxicity, cell-based
3T3SA [10] = assay: Induction of apoptosis in RIP3shRNA transfected mouse 3T3SA cells co-transfected with shRNA-resistant RIP3 K51A mutant pre-tranfected for 16 hrs followed by compound addition and measured after 18 hrs in presence of zVAD by Cell Titer-Glo luminescent cell viability assay; type: toxicity, cell-based
MEF [11] = assay: Induction of apoptosis in cFLIPL-/- MEF cells incubated for 18 hrs by Cell Titer-Glo luminescent cell viability assay; type: toxicity, cell-based; details: mouse
3T3SA [12] = assay: Induction of apoptosis in mouse 3T3SA cells in presence of vIRA by Cell Titer-Glo luminescent cell viability assay; type: toxicity, cell-based
3T3SA [13] = assay: Induction of apoptosis in mouse 3T3SA cells transfected with RIP1 siRNA assessed as accumulation of cleaved caspase 8 incubated for 0.5 to 1.5 hrs by immunoblot analysis; type: toxicity, cell-based; details: time 0.5-1.5 hrs
MEF [14] = assay: Induction of apoptosis in MEF cells expressing wildtype RIP3 incubated for 18 hrs by Cell Titer-Glo luminescent cell viability assay; type: toxicity, cell-based; details: mouse
MEF [15] = assay: Inhibition of necroptosis in MEF cells expressing RIP1 K45A/K45A mutant incubated for 18 hrs by Cell Titer-Glo luminescent cell viability assay; type: functional, cell-based; details: Mus musculus
MEF [16] = assay: Induction of apoptosis in MEF cells expressing RIP3 K51A/K51A mutant incubated for 18 hrs by Cell Titer-Glo luminescent cell viability assay; type: toxicity, cell-based; details: mouse
SVEC4-10 = assay: Induction of apoptosis in mouse SVEC4-10 cells transfected with M45mutRHIM incubated for 18 hrs by Cell Titer-Glo luminescent cell viability assay; type: toxicity, cell-based; details: svec4-10, 18 h
MEF [17] = assay: Induction of apoptosis in […] MEF cells incubated for 18 hrs by Cell Titer-Glo luminescent cell viability assay; type: toxicity, cell-based; details: mouse
3T3SA [18] = assay: Induction of apoptosis in mouse 3T3SA cells incubated for 18 hrs in presence of Nec-1 by Cell Titer-Glo luminescent cell viability assay; type: toxicity, cell-based
3T3SA [19] = assay: Induction of apoptosis in RIP3shRNA transfected mouse 3T3SA cells co-transfected with shRNA-resistant RIP3 pre-tranfected for 16 hrs followed by compound addition and measured after 18 hrs in presence of zVAD by Cell Titer-Glo luminescent cell viability assay; type: toxicity, cell-based
3T3SA [20] = assay: Induction of apoptosis in vICA expression plasmid transfected mouse 3T3SA cells co-transfected with shRNA-resistant RIP3 D143N mutant incubated for 12 hrs by Cell Titer-Glo luminescent cell viability assay; type: toxicity, cell-based
3T3SA [21] = assay: Inhibition of necroptosis in mouse 3T3SA cells incubated for 18 hrs in presence of Nec-1 by Cell Titer-Glo luminescent cell viability assay; type: functional, cell-based
MEF [22] = assay: Induction of apoptosis in Casp8-/- MEF cells incubated for 18 hrs by Cell Titer-Glo luminescent cell viability assay; type: toxicity, cell-based; details: mouse
3T3SA [23] = assay: Induction of apoptosis in mouse 3T3SA cells incubated for 18 hrs in presence of BMS-345541 by Cell Titer-Glo luminescent cell viability assay; type: toxicity, cell-based
3T3SA [24] = assay: Induction of apoptosis in RIP3 shRNA transfected mouse 3T3SA cells co-transfected with shRNA resistant RIP3 K51A mutant assessed as accumulation of RIP3 K51A mutant in pellet incubated for 3 hrs in presence of zVAD by immunoblot analysis; type: toxicity, cell-based
3T3SA [25] = assay: Induction of apoptosis in mouse 3T3SA cells transfected with RIP3 shRNA assessed as accumulation of cleaved caspase-3 by measuring percentage of cleaved caspase-3 positive cells measured after 8 hrs by immunoblot analysis (reference value: 11%); type: toxicity, cell-based
3T3SA [26] = assay: Induction of apoptosis in vICA expression plasmid transfected mouse 3T3SA cells co-transfected with shRNA-resistant RIP3 K51A mutant incubated for 12 hrs by Cell Titer-Glo luminescent cell viability assay; type: toxicity, cell-based
3T3SA [27] = assay: Induction of apoptosis in vICA expression plasmid transfected mouse 3T3SA cells co-transfected with shRNA-resistant RIP3 D161G mutant incubated for 12 hrs by Cell Titer-Glo luminescent cell viability assay; type: toxicity, cell-based
3T3SA [28] = assay: Induction of apoptosis in RIP3 shRNA transfected mouse 3T3SA cells co-transfected with shRNA resistant RIP3 assessed as accumulation of wildtype RIP3 in pellet incubated for 3 hrs in presence of zVAD by immunoblot analysis; type: toxicity, cell-based
3T3SA [29] = assay: Induction of apoptosis in mouse 3T3SA cells assessed as accumulation of cleaved caspase-3 measured after 1.5 to 2.5 hrs by immunoblot analysis; type: toxicity, cell-based; details: time 1.5-2.5 hrs
3T3SA [30] = assay: Induction of apoptosis in mouse 3T3SA cells incubated for 18 hrs in presence of BHA by Cell Titer-Glo luminescent cell viability assay; type: toxicity, cell-based
3T3SA [31] = assay: Induction of apoptosis in vICA expression plasmid transfected mouse 3T3SA cells co-transfected with shRNA-resistant RIP3 mutRHIM incubated for 12 hrs by Cell Titer-Glo luminescent cell viability assay; type: toxicity, cell-based
3T3SA [32] = assay: Induction of apoptosis in mouse 3T3SA cells assessed as cell death by measuring percent of PI positive cells incubated for 8 hrs by PI staining based flow cytometric analysis (reference value: 11.4%); type: toxicity

Sequence of Serine/threonine-protein kinase ULK2 (Homo sapiens) (Q8IYT8 whole entry): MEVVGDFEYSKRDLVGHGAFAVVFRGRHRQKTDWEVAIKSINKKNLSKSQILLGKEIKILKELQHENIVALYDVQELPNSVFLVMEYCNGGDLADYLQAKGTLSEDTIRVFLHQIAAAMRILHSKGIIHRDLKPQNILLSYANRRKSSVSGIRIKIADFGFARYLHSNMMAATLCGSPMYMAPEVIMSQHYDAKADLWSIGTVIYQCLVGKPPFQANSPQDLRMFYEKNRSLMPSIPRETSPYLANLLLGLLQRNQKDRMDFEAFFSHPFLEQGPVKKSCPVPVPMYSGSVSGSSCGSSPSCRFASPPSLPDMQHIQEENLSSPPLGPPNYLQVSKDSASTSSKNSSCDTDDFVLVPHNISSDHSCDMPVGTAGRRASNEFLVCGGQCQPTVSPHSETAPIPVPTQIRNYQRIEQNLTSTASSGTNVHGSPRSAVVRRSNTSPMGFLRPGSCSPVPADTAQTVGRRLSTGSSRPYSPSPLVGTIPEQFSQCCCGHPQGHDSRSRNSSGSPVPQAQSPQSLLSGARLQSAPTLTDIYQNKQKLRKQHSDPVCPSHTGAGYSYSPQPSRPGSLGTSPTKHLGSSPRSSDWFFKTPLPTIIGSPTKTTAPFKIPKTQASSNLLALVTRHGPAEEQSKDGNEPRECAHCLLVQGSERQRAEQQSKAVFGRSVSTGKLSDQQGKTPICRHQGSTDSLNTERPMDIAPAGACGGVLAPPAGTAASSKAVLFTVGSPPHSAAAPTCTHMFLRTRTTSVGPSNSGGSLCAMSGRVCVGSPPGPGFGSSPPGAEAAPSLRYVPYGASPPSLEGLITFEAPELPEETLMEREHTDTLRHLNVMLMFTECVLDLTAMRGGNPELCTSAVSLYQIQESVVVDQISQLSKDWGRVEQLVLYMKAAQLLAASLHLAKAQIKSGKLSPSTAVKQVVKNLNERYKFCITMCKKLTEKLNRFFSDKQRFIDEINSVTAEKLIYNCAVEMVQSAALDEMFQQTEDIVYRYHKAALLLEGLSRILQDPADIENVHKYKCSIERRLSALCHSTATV

With `CNC(=O)c1ccc2c(c1)ncn2-c1ccc(CC(=O)OC(C)(C)C)cc1` the residual activity [1] was 96.1%, the residual activity [2] was 104% and the residual activity [3] was 95.4%. It also gave a residual activity [4] of 92.4%.

With `CC(C)S(=O)(=O)c1ccc2nccc(Nc3ccc4scnc4c3)c2c1` the Activity (3T3SA [5]) was “Toxic”, the Activity (MEF [6]) was “Toxic” and the Activity (3T3SA [7]) was 11%. The Activity (3T3SA [8]) was “Active”, the Activity (3T3SA [9]) was “Non-Toxic” and the Activity (3T3SA [10]) was “Non-Toxic”. For the same molecule, the Activity (MEF [11]) was “Non-Toxic”, the Activity (3T3SA [12]) was “Non-Toxic” and the Activity (3T3SA [13]) was “Non-Toxic”. The Activity (MEF [14]) was “Toxic”, the inhibition (MEF [15]) was “Active” and the Activity (MEF [16]) was “Toxic”. The Activity (SVEC4-10) was “Toxic”, the Activity (MEF [17]) was “Non-Toxic” and the Activity (3T3SA [18]) was “Non-Toxic”. The Activity (3T3SA [19]) was “Non-Toxic”, the Activity (3T3SA [20]) was “Non-Toxic” and the inhibition (3T3SA [21]) was “Active”. For the same molecule, the Activity (MEF [22]) was “Non-Toxic”, the Activity (3T3SA [23]) was “Toxic” and the Activity (3T3SA [24]) was “Toxic”. For the same molecule, the Activity (3T3SA [25]) was 12.1%, the Activity (3T3SA [26]) was “Non-Toxic” and the Activity (3T3SA [27]) was “Non-Toxic”. For the same molecule, the Activity (3T3SA [28]) was “Toxic”, the Activity (3T3SA [29]) was “Toxic” and the Activity (3T3SA [30]) was “Toxic”. The Activity (3T3SA [31]) was “Non-Toxic” and the Activity (3T3SA [32]) was 62%.
